Experiment [1] concerns the target T1, rat adrenergic α1B receptor obtained from Wistar Rat liver (Rattus norvegicus, UniProt P15823).
T1 construct: rat adrenergic α1B receptor obtained from Wistar Rat liver; from tissue; host or cells: Wistar rat liver
T1 sequence (P15823 1-515): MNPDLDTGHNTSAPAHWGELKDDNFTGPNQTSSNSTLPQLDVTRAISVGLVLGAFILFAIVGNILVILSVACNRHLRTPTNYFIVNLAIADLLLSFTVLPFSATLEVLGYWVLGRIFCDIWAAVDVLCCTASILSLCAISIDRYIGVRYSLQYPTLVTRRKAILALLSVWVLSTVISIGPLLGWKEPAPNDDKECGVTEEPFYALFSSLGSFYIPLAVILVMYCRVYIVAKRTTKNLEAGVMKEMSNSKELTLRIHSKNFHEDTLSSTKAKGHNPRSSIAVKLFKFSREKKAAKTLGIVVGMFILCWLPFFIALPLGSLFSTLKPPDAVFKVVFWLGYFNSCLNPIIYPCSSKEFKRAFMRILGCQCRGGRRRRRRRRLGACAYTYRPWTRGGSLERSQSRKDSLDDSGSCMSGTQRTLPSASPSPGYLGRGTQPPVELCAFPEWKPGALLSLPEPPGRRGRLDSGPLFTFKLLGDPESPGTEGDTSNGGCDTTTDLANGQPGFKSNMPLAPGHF
Briefly: Adrenergic α1B radioligand binding assay ([3H]Prazosin). The following applies: 0.1 μM compound; read-out: Percentage inhibition of ligand binding, Adrenergic α1B. The procedure:
To evaluate in radioligand binding assays the activity of compounds of the invention, rat adrenergic α1B receptor obtained from Wistar Rat liver (Garcia-S'ainz, J. et al, Biochem. Biophys. Res. Commun. 186:760, 1992; Michel, A. et al, Br. J. Pharmacol. 98:883, 1989) in a modified Tris-HCl buffer (50 mM Tris-HCl buffer, pH 7.4, 0.5 mM EDTA) was used. Compounds of the invention were incubated with 0.25 nM [^3H]Prazosin for 60 min at 25° C. Non-specific binding was estimated in the presence of 10 μM phentolamine. Receptor proteins were filtered and washed, the filters were then counted to determine [^3H]Prazosin specifically bound. Compounds were screened at 1 μM or lower, using 1% DMSO as vehicle. Compounds of the invention were tested in this biochemical assay and percent inhibition of specific binding was determined. Biochemical assay results are presented as the percent inhibition of specific binding in Tables B1A-B1D.

Experiment [2] deals with T2, human recombinant adrenergic α1D receptor (Homo sapiens, UniProt P25100).
T2 construct: expressed in transfected cells; host or cells: HEK-293 cells
T2 sequence (P25100 1-572): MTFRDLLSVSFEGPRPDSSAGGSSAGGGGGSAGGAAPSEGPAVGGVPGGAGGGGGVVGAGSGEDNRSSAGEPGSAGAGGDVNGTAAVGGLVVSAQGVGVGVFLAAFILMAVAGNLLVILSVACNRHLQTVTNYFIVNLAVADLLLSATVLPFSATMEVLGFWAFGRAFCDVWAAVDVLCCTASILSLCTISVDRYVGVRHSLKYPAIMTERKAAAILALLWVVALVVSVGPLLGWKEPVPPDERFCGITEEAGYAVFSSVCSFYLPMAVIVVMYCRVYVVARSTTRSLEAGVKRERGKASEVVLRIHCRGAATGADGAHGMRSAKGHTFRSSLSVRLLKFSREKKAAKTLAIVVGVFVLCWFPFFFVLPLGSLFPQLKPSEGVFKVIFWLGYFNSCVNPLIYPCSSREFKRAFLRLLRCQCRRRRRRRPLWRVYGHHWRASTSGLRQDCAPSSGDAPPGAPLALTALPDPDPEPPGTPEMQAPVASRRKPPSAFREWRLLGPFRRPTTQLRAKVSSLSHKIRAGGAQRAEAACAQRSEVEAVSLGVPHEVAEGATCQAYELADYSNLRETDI
Briefly: Adrenergic α1D radioligand binding assay ([3H]Prazosin). The following applies: 0.1 μM compound; read-out: Percentage inhibition of ligand binding, Adrenergic α1D. The protocol: To evaluate in radioligand binding assays the activity of compounds of the invention, human recombinant adrenergic α1D receptor expressed in human embryonic kidney (HEK-293) cells (Kenny, B. et al, Br. J. Pharmacol. 115(6):981, 1995) in a 50 mM Tris-HCl buffer, pH 7.4, was used. Compounds were incubated with 0.6 nM [3H]Prazosin for 60 min at 25° C. Non-specific binding was estimated in the presence of 10 μM phentolamine. Receptor proteins were filtered and washed, the filters were then counted to determine [3H]Prazosin specifically bound. Compounds were screened at 1 μM or lower, using 1% DMSO as vehicle. Biochemical assay results are presented as the percent inhibition of specific binding in Tables B1A-B1D.

In experiment [3] the target is T3, human recombinant adrenergic α2A receptor (Homo sapiens, UniProt P08913).
T3 construct: expressed in transfected cells; host or cells: insect Sf9 cells
T3 sequence (P08913 1-465): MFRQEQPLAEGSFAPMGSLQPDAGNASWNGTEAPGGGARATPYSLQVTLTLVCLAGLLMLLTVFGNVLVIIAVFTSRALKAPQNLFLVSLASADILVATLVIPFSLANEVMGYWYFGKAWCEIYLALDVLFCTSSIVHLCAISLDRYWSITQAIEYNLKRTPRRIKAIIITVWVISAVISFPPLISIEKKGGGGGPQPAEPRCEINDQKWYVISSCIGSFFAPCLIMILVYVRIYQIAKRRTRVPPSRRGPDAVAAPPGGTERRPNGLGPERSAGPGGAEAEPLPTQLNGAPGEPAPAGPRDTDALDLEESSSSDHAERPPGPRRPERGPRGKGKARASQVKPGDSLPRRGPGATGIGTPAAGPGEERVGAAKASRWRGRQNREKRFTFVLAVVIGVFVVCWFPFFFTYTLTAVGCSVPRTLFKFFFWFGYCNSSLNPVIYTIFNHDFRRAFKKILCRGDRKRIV
Briefly: Adrenergic α2A radioligand binding assay ([3H]MK-912). The following applies: 0.1 μM compound; read-out: Percentage inhibition of ligand binding, Adrenergic α2A. The procedure: To evaluate in radioligand binding assays the activity of compounds of the invention, human recombinant adrenergic α2A receptor expressed in insect Sf9 cells (Uhlen, S. et al, J. Pharmacol. Exp. Ther. 271:1558, 1994) in a modified Tris-HCl buffer (50 mM Tris-HCl, pH 7.4, 12.5 mM MgCl2, 2 mM EDTA) was used. Compounds of invention were incubated with 1 nM [^3H]MK-912 for 60 min at 25° C. MK912 was (2S-trans)-1,3,4,5′,6,6′,7,12b-octahydro-1′,3′-dimethyl-spiro[2H-benzofuro[2,3-a]quinolizine-2,4′(1′H)-pyrimidin]-2′(3′H)-one hydrochloride Non-specific binding was estimated in the presence of 10 μM WB-4101 (2-(2,6-Dimethoxyphenoxyethyl)aminomethyl-1,4-benzodioxane hydrochloride). Receptor proteins were filtered and washed, the filters were then counted to determine [^3H]MK-912 specifically bound. Compounds were screened at 1 μM or lower, using 1% DMSO as vehicle. Compounds of the invention were tested in this biochemical assay and percent inhibition of specific binding was determined. Biochemical assay results are presented as the percent inhibition of specific binding in Tables B1A-B1D.

SMILES strings stand for the structures.

This note sets out measurements from patent US20140303144A1, “COMPOUNDS AND METHODS OF TREATING HYPERTENSION” (Medivation Technologies, Inc., priority 2011, published 2014).

With `Cc1ccc2c(c1)c1c3n2C(c2ccccc2)CCC3(C)CN(C)C1` (stereo not drawn) [D12], the inhibition at 0.1 µM in experiment [1] is 10%; in experiment [2] it was -3%; in experiment [3], 5%.
On to `Cc1cc2c3c(c1)c1c(n3CC(C)(c3ccc(C)nc3)OC(C)C2)CCN(C)C1` (stereo not drawn) [B160], for which the inhibition at 0.1 µM in experiment [1] is 2%; in experiment [2], 15%; in experiment [3], -1%.
Consider `C/C(=C\c1cc(C)cc2c3c(n(C)c12)CCN(C)C3)c1ccc(C)nc1` [A15], for which the inhibition at 0.1 µM in experiment [1] stood at 0%; in experiment [2] it was 5%; in experiment [3], 20%.
With `Cc1cc(C#Cc2ccc(C)nc2)c2c(c1)c1c(n2C)CCN(C)C1` [A12], the values for the inhibition at 0.1 µM in experiment [1], in experiment [2] and in experiment [3] were 2%, 38% and -4%, respectively.
`Cc1cc(C#Cc2ccncc2)c2c(c1)c1c(n2C)CCN(C)C1` [A17]: the results for the inhibition at 0.1 µM in experiment [1], in experiment [2] and in experiment [3] were 9%, -5% and 14%, respectively.
Turning to `Cc1cc2c3c(c1)c1c(n3CC(C)(c3ccncc3)OC(C)C2)CCN(C)C1` (stereo not drawn) [B165], the inhibition at 0.1 µM in experiment [1] came out at 0%; in experiment [2] it was 0%; in experiment [3] it was 40%.
`Cc1cc2c3c(c1)c1c(n3C(c3ccccc3)C2)CCN(C)C1` (stereo not drawn) [B12]: the results for the inhibition at 0.1 µM in experiment [1], in experiment [2] and in experiment [3] were 28%, 28% and 75%, respectively.
As to `C/C(=C\c1cc(C)cc2c3c(n(C)c12)CCN(C)C3)c1ccncc1` [A11], the inhibition at 0.1 µM in experiment [1] is -1%; in experiment [2], -1%; in experiment [3] it was 4%.
Consider `C#Cc1cc(C)cc2c3c(n(C)c12)CCN(C)C3` [A10], for which the inhibition at 0.1 µM was determined as 11% in experiment [1], 26% in experiment [2] and 23% in experiment [3].
Take `Cc1cc(C#Cc2nccs2)c2[nH]c3c(c2c1)CN(C)CC3` [A16]: the inhibition at 0.1 µM in experiment [1] is 1%; in experiment [2], -2%; in experiment [3], 31%.
On to `Cc1cc(/C=C/c2ccc(C)nc2)c2c(c1)c1c(n2C)CCN(C)C1` [A14], for which the inhibition at 0.1 µM in experiment [1] is 0%; in experiment [2], -9%; in experiment [3], 12%.
As to `Cc1cc(-c2ccc(F)cc2)c2c(c1)c1c(n2C)CCN(C)C1` [A7], the inhibition at 0.1 µM in experiment [1] was 2%; in experiment [2] it was 4%; in experiment [3], 10%.
For the compound `Cc1cc(CCc2ccc(C)nc2)c2c(c1)c1c(n2C)CCN(C)C1` [A13], the inhibition at 0.1 µM was -9% in experiment [1], 8% in experiment [2] and -12% in experiment [3].
On to `Cc1cc(C#Cc2cccs2)c2[nH]c3c(c2c1)CN(C)CC3` [A8], for which the results for the inhibition at 0.1 µM in experiment [1], in experiment [2] and in experiment [3] were -3%, 3% and 20%, respectively.
As for `Cc1cc2c3c(c1)c1c(n3C[C@](C)(c3ccncc3)O[C@H]2C)CCN(C)C1` [B163], the inhibition at 0.1 µM in experiment [1] stood at 6%; in experiment [2] it was 15%; in experiment [3], 5%.
For `Cc1ccc2c(c1)c1c3n2C(c2ccccc2)=CCC3(C)CN(C)C1` (stereo not drawn) [D10], the inhibition at 0.1 µM was -3% in experiment [1], -6% in experiment [2] and -1% in experiment [3].
Regarding `Cc1ccc(C#Cc2cc(Cl)cc3c4c(n(C)c23)CCN(C)C4)cn1` [A18], the inhibition at 0.1 µM in experiment [1] was 30%; in experiment [2], 34%; in experiment [3], 6%.
Take `Cc1cc(-c2ccncc2)c2c(c1)c1c(n2C)CCN(C)C1` [A9]: the inhibition at 0.1 µM in experiment [1] was -9%; in experiment [2], -1%; in experiment [3] it was 0%.
Turning to `Cc1ccc2c(c1)c1c3n2CC(c2ccncc2)=CCC3(C)CN(C)C1` (stereo not drawn) [D11], the inhibition at 0.1 µM in experiment [1] was 16%; in experiment [2], -5%; in experiment [3], 8%.
As to `Cc1cc2c3c(c1)c1c(n3C[C@@](C)(c3ccncc3)O[C@H]2C)CCN(C)C1` [B162], the inhibition at 0.1 µM in experiment [1] is -6%; in experiment [2], -2%; in experiment [3] it was 14%.

Broadly, the inhibition is the change of the read-out against control, counted positive when it falls.
